Measurements from PubChem BioAssay (NCI).
Where “and” joins values, the source holds several entries; their conditions need not be identical. Equal values may be shown once.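 Briefly, cells in 96-well plates were exposed to five compound concentrations for 48 h, and endpoints were estimated by linear interpolation. Here, GI50 denotes the concentration required for 50% inhibition of growth. TGI denotes the concentration required for complete inhibition of growth.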 Where a SMILES comes first, the peptide text is derived from it. The star is where a group is joined. Boc = CC(C)(C)OC(=O)*

Key:
Test in all cases: NCI-60 cell line screen, 48 h
NCI/ADR-RES ovarian = tested on: NCI/ADR-RES ovarian
HT29 colon = tested on: HT29 colon
SNB-19 CNS = tested on: SNB-19 CNS
CCRF-CEM leukemia = tested on: CCRF-CEM leukemia
786-0 renal = tested on: 786-0 renal
HCT-116 colon = tested on: HCT-116 colon
SF-539 CNS = tested on: SF-539 CNS
UACC-257 melanoma = tested on: UACC-257 melanoma
NCI-H522 lung = tested on: NCI-H522 lung
HOP-92 NSCLC = tested on: HOP-92 NSCLC

SMILES	TGI (NCI/ADR-RES ovarian) [µM]	TGI (HT29 colon) [µM]	TGI (SNB-19 CNS) [µM]	TGI (CCRF-CEM leukemia) [µM]	TGI (786-0 renal) [µM]	TGI (HCT-116 colon)	TGI (SF-539 CNS) [µM]	TGI (UACC-257 melanoma) [µM]	TGI (NCI-H522 lung) [µM]	TGI (HOP-92 NSCLC) [µM]	GI50 (NCI/ADR-RES ovarian) [µM]	GI50 (HT29 colon) [µM]	GI50 (SNB-19 CNS) [µM]	GI50 (CCRF-CEM leukemia) [µM]	GI50 (HCT-116 colon) [µM]	GI50 (SF-539 CNS) [µM]	GI50 (UACC-257 melanoma) [µM]	GI50 (NCI-H522 lung) [µM]	GI50 (HOP-92 NSCLC) [µM]
Oc1cccc2c(Br)ccnc12	12.7	19.4	64.1	4.1	> 100	12.2 µM	> 49.1	16.1	17.1	23	–	–	–	–	–	–	–	–	–
Cc1c(OCc2cccc3ccccc23)ccc2c(=O)cc(SCCN3CCOCC3)oc12	> 100	> 100	> 100	> 100	> 100	> 100 µM	> 100	> 100	> 100	> 100	–	–	–	–	–	–	–	–	–
CC(c1ccccc1)n1cncc1C(=O)NN1CCN(C)CC1 (stereo not drawn)	> 10	> 10	> 10	> 10	> 10	> 10 µM	> 10	> 10	> 10	–	–	–	–	–	–	–	–	–	–
CC(C)[C@H](C)/C=C/[C@@H](C)C1CC[C@H]2[C@@]34C=C[C@]5(C[C@@H](O)CC[C@]5(C)[C@H]3CC[C@]12C)OO4 (stereo partly drawn)	50.2	53.7	81.7	–	47.7	42.8 µM	> 100	> 100	–	92.3	–	–	–	–	–	–	–	–	–
Cc1cn(C2CC(COCc3ccccc3)N(CCO[Si](C)(C)C(C)(C)C)O2)c(=O)[nH]c1=O (stereo not drawn)	28.9	28.7	27.2	–	> 100	43 µM	33.9	–	31.4	25.7	–	–	–	–	–	–	–	–	–
CCC1=C(C[C@H]2NCCc3cc(OC)c(OC)cc32)C[C@H]2c3cc(OC)c(OC)cc3CCN2C1	–	0.182	–	–	0.107	0.0745 µM	0.148	0.365	0.0688	0.095	–	–	–	–	–	–	–	–	–
COC(=O)C(Cc1c[nH]c2ccccc12)NC(=O)C(Cc1c[nH]c2ccccc12)NC(=O)C(Cc1c[nH]c2ccccc12)NC(=O)C(Cc1c[nH]c2ccccc12)NC(=O)C(Cc1c[nH]c2ccccc12)NC(=O)C(Cc1c[nH]c2ccccc12)NC(=O)C(Cc1c[nH]c2ccccc12)NC(=O)OC(C)(C)C (stereo not drawn) (Boc-WWWWWWW-OMe; configuration not given here)	–	> 100	> 100	> 100	> 100	> 100 µM	–	> 100	> 100	–	–	–	–	–	–	–	–	–	–
COC(=O)CCC(=O)NC1=C(Nc2ccccc2)C(=O)c2ccccc2C1=O	39.9	35.7	31.4	42.9	25.4	23 µM	29.1	9.76	29.2	31.7	–	–	–	–	–	–	–	–	–
O=C1N2CCC[C@H]2CS1(=O)=O	> 100	75.1	> 100	7.1	23.1	28.1 µM	> 100	37.4	18.5	25.7	–	–	–	–	–	–	–	–	–
O=[N+]([O-])c1ccc(N2N=C(c3c(O)ccc4ccccc34)CC2c2ccc(Cl)cc2)c([N+](=O)[O-])c1 (stereo not drawn)	55.6	67	–	31	> 100	37.2 µM	91.7	> 100	> 100	> 100	–	–	–	–	–	–	–	–	–
O=C(O)Cn1c2c(c3c1-c1ccccc1C3=O)C(=O)CCC2	> 100	> 100	> 100	> 100	–	> 100 µM	> 100	> 100	> 100	> 100	> 100	> 100	> 100	32	> 100	> 100	> 100	> 100	20
O=c1cc(N2CCOCC2)n2c(ccc3ccccc32)n1	> 100	> 100	> 100	> 100	> 100	> 100 µM	> 100	> 100	> 100	> 100	–	–	–	–	–	–	–	–	–
CC(=O)CC(=O)N1CCSC1=S	–	> 10	> 10	> 10	> 10	> 10 µM	> 10	> 10	–	> 10	–	–	–	–	–	–	–	–	–
Cc1cc(S(=O)(=O)Nc2nc3cscc3c(=O)n2N)c(S)cc1Cl	73.4	> 100	> 100	> 100	> 100	> 100 µM	> 100	> 100	77.9	–	–	–	–	–	–	–	–	–	–
C=C(CN(CC)CC)C1(c2ccccc2)CC2(CCCC2)C(=O)O1 (stereo not drawn)	84.4	77.9	> 100	> 100	> 100	> 100 µM	> 100	98.9	> 100	83.3	–	–	–	–	–	–	–	–	–
Cc1ccc(N=C/C=C(\Nc2ccc(C)cc2)c2ccc3ccccc3c2)cc1	2.16	2.32	15.4	0.558	3.38	2.99 µM	3.45	16.6	11	27.6	–	–	–	–	–	–	–	–	–
Cc1ccc(N2C(=O)C3CSCN3C2=O)cc1 (stereo not drawn)	> 100	> 100	> 100	> 100	–	> 100 µM and 11.7 µM	> 100	> 100	> 100	> 100	–	–	–	–	> 100	–	–	–	–
CC(C)(C)OC(=O)C(C#N)C(=O)c1ccc(C(=O)O)[nH]1 (stereo not drawn)	38.5	> 100	> 100	> 100	> 100	> 100 µM	> 100	> 100	> 100	73.6	–	–	–	–	–	–	–	–	–
CC(CCc1nc2ccccc2s1)(c1ccc(O)cc1)c1ccc(O)cc1	57.2	38.4	34.8	–	30.2	34 µM	–	28.7	32	36.7	–	–	–	–	–	–	–	–	–
S=C1C(=Nc2ccccc2)N(c2ccccc2)/C(=N\c2cccc[n+]2Cc2ccccc2)N1c1ccccc1	> 100	43	34.8	–	30	23.9 µM	34	31.6	31.2	41.9	–	–	–	–	–	–	–	–	–
O=c1c2ccccc2nc(N/N=C/c2ccc([N+](=O)[O-])cc2)n1-c1ccccc1	> 100	> 100	> 100	> 100	20.1	> 100 µM	–	> 100	> 100	–	–	–	–	–	–	–	–	–	–
